Reference: paper PMC6968503, “Synthesis and human carbonic anhydrase I, II, VA, and XII inhibition with novel amino acid–sulphonamide conjugates” (Journal of Enzyme Inhibition and Medicinal Chemistry, 2020)
Read-outs that look alike come from different tables or passages of the source.

Assays:
Assay in all cases: stopped-flow CO2 hydration
Format in all cases: biochemical
hCA I = biological target: T1, hCA I (Homo sapiens, UniProt P00915)
T1 construct: gene CA1
Text: stopped-flow CO2 hydration on hCA I

hCA VA = biological target: T2, hCA VA (Homo sapiens, UniProt P35218)
T2 construct: gene CA5A
T2 sequence (P35218 39-305): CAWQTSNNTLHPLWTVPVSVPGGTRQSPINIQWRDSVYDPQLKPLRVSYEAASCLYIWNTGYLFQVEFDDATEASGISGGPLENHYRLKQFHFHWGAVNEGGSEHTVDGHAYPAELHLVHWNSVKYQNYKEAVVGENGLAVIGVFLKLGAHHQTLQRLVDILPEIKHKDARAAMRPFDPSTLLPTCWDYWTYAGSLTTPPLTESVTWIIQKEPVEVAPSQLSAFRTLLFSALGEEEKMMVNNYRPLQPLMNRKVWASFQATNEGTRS
Text: stopped-flow CO2 hydration on hCA VA

hCA II = biological target: T3, hCA II (Homo sapiens, UniProt P00918)
T3 construct: gene CA2
Text: stopped-flow CO2 hydration on hCA II

hCA XII = biological target: T4, hCA XII (Homo sapiens, UniProt O43570)
T4 construct: gene CA12
T4 sequence (O43570 25-354): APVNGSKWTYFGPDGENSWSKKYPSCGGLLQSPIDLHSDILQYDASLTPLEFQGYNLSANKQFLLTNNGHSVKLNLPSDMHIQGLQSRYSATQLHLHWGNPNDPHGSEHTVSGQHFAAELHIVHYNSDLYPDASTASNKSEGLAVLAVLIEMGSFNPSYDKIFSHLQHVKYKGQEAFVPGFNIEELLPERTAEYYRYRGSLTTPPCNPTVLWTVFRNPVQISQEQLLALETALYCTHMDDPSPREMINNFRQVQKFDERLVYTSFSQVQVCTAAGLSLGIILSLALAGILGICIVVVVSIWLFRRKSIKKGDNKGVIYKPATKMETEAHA
Text: stopped-flow CO2 hydration on hCA XII

T1 sequence (P00915 2-261): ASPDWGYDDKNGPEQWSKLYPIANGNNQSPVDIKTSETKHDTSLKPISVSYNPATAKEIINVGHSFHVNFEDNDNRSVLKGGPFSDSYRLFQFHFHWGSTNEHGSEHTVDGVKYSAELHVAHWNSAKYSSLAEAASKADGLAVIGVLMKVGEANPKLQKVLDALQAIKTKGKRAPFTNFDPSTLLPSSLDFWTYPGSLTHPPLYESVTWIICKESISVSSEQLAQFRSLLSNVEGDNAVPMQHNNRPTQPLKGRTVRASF

Row | Structure (SMILES) | Ki (hCA I) | Ki (hCA VA) | Ki (hCA II) | Ki (hCA XII) | Ki (hCA VA; CO2 […], […] HEPES pH […] Na2SO4, […] min preincubation, room temperature)
1 | NS(=O)(=O)c1ccc(CNC(=O)[C@@H](Cc2c[nH]c3ccccc23)NC(=O)OCc2ccccc2)cc1 [compound 23, Benzyl (R)-(3-(1H-indol-3-yl)-1-oxo-1-((4-sulphamoylbenzyl)amino)propan-2-yl)carbamate] | 305 nM | 401 nM | 0.9 nM | 78.1 nM | 
2 | CC[C@@H](C)[C@@H](NC(=O)OC(C)(C)C)C(=O)NCc1ccc(S(N)(=O)=O)cc1 [compound 24, tert-Butyl ((2R,3R)-3-methyl-1-oxo-1-((4-sulphamoylbenzyl)amino)pentan-2-yl)carbamate] | 178 nM | 4580 nM | 0.8 nM | 50.3 nM | 
3 | NS(=O)(=O)c1ccc(CNC(=O)[C@@H](CSc2ccccc2)NC(=O)OCc2ccccc2)cc1 [compound 16, Benzyl (S)-(1-oxo-3-(phenylthio)-1-((4-sulphamoylbenzyl)amino)propan-2-yl)carbamate] | 764 nM | 3960 nM | 3.3 nM | 37.1 nM | 
4 | CC(C)[C@@H](NC(=O)OCc1ccccc1)C(=O)NCc1ccc(S(N)(=O)=O)cc1 [compound 15, Benzyl (R)-(3-methyl-1-oxo-1-((4-sulphamoylbenzyl)amino)butan-2-yl)carbamate] | 8.1 nM | 503 nM | 28.4 nM | 67.7 nM | 
5 | CC(C)(C)OC(=O)NCC(=O)NCc1ccc(S(N)(=O)=O)cc1 [compound 17, tert-Butyl (2-oxo-2-((4-sulphamoylbenzyl)amino)ethyl)carbamate] | 3340 nM | 3650 nM | 6.8 nM | 8.8 nM | 
6 | CC[C@@H](C)[C@@H](NC(=O)OC(C)(C)C)C(=O)NCCc1ccc(S(N)(=O)=O)cc1 [compound 11, tert-Butyl ((2R,3R)-3-methyl-1-oxo-1-((4-sulphamoylphenethyl)amino)pentan-2-yl)carbamate] | 349 nM | 3870 nM |  | 56.2 nM | 
7 | CC(C)C[C@@H](NC(=O)OCc1ccccc1)C(=O)NCc1ccc(S(N)(=O)=O)cc1 [compound 13, Benzyl (R)-(4-methyl-1-oxo-1-((4-sulphamoylbenzyl)amino)pentan-2-yl)carbamate] | 61.1 nM | 578 nM | 86.6 nM | 39.8 nM | 
8 | NS(=O)(=O)c1ccc(CCNC(=O)C[C@@H](NC(=O)OCc2ccccc2)C(=O)NCCc2ccc(S(N)(=O)=O)cc2)cc1 [compound 12, Benzyl (R)-(1,4-dioxo-1,4-bis((4-sulphamoylphenethyl)amino)butan-2-yl)carbamate] | 689 nM | 3140 nM | 215 nM | 24.4 nM | 
9 | CC(C)(C)OC(=O)N[C@H](Cc1ccccc1)C(=O)NCc1ccc(S(N)(=O)=O)cc1 [compound 19, tert-Butyl (R)-(1-oxo-3-phenyl-1-((4-sulphamoylbenzyl)amino)propan-2-yl)carbamate] | 3780 nM | 734 nM | 61.4 nM | 6.9 nM | 
10 | CSCC[C@@H](NC(=O)OCc1ccccc1)C(=O)NCc1ccc(S(N)(=O)=O)cc1 [compound 14, Benzyl (R)-(4-(methylthio)-1-oxo-1-((4-sulphamoylbenzyl)amino)butan-2-yl)carbamate] | 9.3 nM | 384 nM | 8.9 nM | 74.3 nM | 
11 | CC(C)[C@@H](NC(=O)OC(C)(C)C)C(=O)NCCc1ccc(S(N)(=O)=O)cc1 [compound 10, tert-Butyl (R)-(3-methyl-1-oxo-1-((4-sulphamoylphenethyl)amino)butan-2-yl)carbamate] | 2990 nM | 661 nM |  | 197 nM | 
12 | CC(C)[C@@H](NC(=O)OC(C)(C)C)C(=O)NCc1ccc(S(N)(=O)=O)cc1 [compound 22, tert-Butyl (R)-(3-methyl-1-oxo-1-((4-sulphamoylbenzyl)amino)butan-2-yl)carbamate] | 753 nM | 4780 nM | 168 nM | 90.1 nM | 
13 | C[C@@H](NC(=O)OC(C)(C)C)C(=O)NCCc1ccc(S(N)(=O)=O)cc1 [compound 5, tert-Butyl (R)-(1-oxo-1-((4-sulphamoylphenethyl)amino)propan-2-yl)carbamate] | 73.5 nM | 68.7 nM | 6.6 nM | 45.6 nM | 
14 | C[C@@H](NC(=O)OC(C)(C)C)C(=O)NCc1ccc(S(N)(=O)=O)cc1 [compound 18, tert-Butyl (R)-(1-oxo-1-((4-sulphamoylbenzyl)amino)propan-2-yl)carbamate] | 3890 nM | 5360 nM | 6.8 nM | 20.6 nM | 
15 | CSCC[C@@H](NC(=O)OC(C)(C)C)C(=O)NCc1ccc(S(N)(=O)=O)cc1 [compound 21, tert-Butyl (R)-(4-(methylthio)-1-oxo-1-((4-sulphamoylbenzyl)amino)butan-2-yl)carbamate] | 5360 nM | 4990 nM | 316 nM | 3.9 nM | 
16 | CSCC[C@H](NC(=O)OC(C)(C)C)C(=O)NCCc1ccc(S(N)(=O)=O)cc1 [compound 9, tert-Butyl (S)-(4-(methylthio)-1-oxo-1-((4-sulphamoylphenethyl)amino)butan-2-yl)carbamate] | 4390 nM | 611 nM |  | 329 nM | 

Next, values leading:

Row | Ki (hCA I) | Ki (hCA VA) | Ki (hCA II) | Ki (hCA XII) | Ki (hCA VA; CO2 […], […] HEPES pH […] Na2SO4, […] min preincubation, room temperature) | Structure (SMILES)
17 |  | 63.4 nM | 1.7 nM | 53.9 nM |  | CSCC[C@@H](NC(=O)OCc1ccccc1)C(=O)NCCc1ccc(S(N)(=O)=O)cc1 [compound 2, Benzyl (R)-(4-(methylthio)-1-oxo-1-((4-sulphamoylphenethyl)amino)butan-2-yl)carbamate]
18 | 697 nM | 3440 nM | 76.4 nM | 38.9 nM |  | NS(=O)(=O)c1ccc(CCNC(=O)[C@H](Cc2ccccc2)NC(=O)OCC2c3ccccc3-c3ccccc32)cc1 [compound 7, (9H-fluoren-9-yl)methyl (S)-(1-oxo-3-phenyl-1-((4-sulphamoylphenethyl)amino)propan-2-yl)carbamate]
19 | 528 nM | 3010 nM | 6.5 nM | 5.5 nM |  | NS(=O)(=O)c1ccc(CCNC(=O)[C@@H](Cc2c[nH]c3ccccc23)NC(=O)OCc2ccccc2)cc1 [compound 8, Benzyl (R)-(3-(1H-indol-3-yl)-1-oxo-1-((4-sulphamoylphenethyl)amino)propan-2-yl)carbamate]
20 | 352 nM | 63.3 nM |  | 8.4 nM |  | NS(=O)(=O)c1ccc(CCNC(=O)[C@@H](CSc2ccccc2)NC(=O)OCc2ccccc2)cc1 [compound 4, Benzyl (S)-(1-oxo-3-(phenylthio)-1-((4-sulphamoylphenethyl)amino)propan-2-yl)carbamate]
21 | 49.5 nM |  | 8.3 nM | 27.4 nM | 58.7 nM | CC(C)C[C@@H](NC(=O)OCc1ccccc1)C(=O)NCCc1ccc(S(N)(=O)=O)cc1 [compound 1, Benzyl (R)-(4-methyl-1-oxo-1-((4-sulphamoylphenethyl)amino)pentan-2-yl)carbamate]
22 | 36 nM | 67.9 nM | 6.4 nM | 8.2 nM |  | NS(=O)(=O)c1ccc(CCNC(=O)CNC(=O)OCC2c3ccccc3-c3ccccc32)cc1 [compound 6, (9H-fluoren-9-yl)methyl (2-oxo-2-((4-sulphamoylphenethyl)amino)ethyl)carbamate]
23 | 5170 nM | 6830 nM | 693 nM | 26.7 nM |  | NS(=O)(=O)c1ccc(CNC(=O)[C@H](Cc2ccccc2)NC(=O)OCC2c3ccccc3-c3ccccc32)cc1 [compound 20, (9H-fluoren-9-yl)methyl (S)-(1-oxo-3-phenyl-1-((4-sulphamoylbenzyl)amino)propan-2-yl)carbamate]
24 | 51.6 nM | 60.3 nM |  | 7.2 nM |  | CC(C)[C@@H](NC(=O)OCc1ccccc1)C(=O)NCCc1ccc(S(N)(=O)=O)cc1 [compound 3, Benzyl (R)-(3-methyl-1-oxo-1-((4-sulphamoylphenethyl)amino)butan-2-yl)carbamate]
